Measurements published in article PMC5319980, “Mutant Analysis Reveals Allosteric Regulation of ClpB Disaggregase” (Frontiers in Molecular Biosciences, 2017).

What was measured:
ClpB [1] = target: T1, ClpB (Escherichia coli, UniProt P63284); test: biochemical; design: competition titration of nucleotide against preformed ClpB-mantADP complex, mantADP fluorescence; conditions: competition with 1.25 uM mantADP; read-out: Knuc (WT)
T1 construct: ClpB wild type
Method: with F: observed fluorescence; F0: starting fluorescence without nucleotide; F1: maximum fluorescence observed; [ATP]: concentration of ADP/ATPγS (μM); Ki,app: apparent dissociation constant. with Ki,app: apparent dissociation constant; Ki: dissociation constant; [mantADP]: mantADP concentration (μM); Kd (mantADP): dissociation constant of mantADP. […] ClpB WT and mutants were incubated for 5 min at 25°C in presence of 2 mM ATPγS. Crosslinking reactions were started by addition of glutaraldehyde and proceeded for 2 and 10 min. Crosslinking products were separated by SDS-PAGE, followed by Sypro-Ruby staining. Supplementary Figure 2 Nucleotide binding properties of ClpB wild type. (A)1,5 µM mantADP was incubated with increasing concentrations of ClpB wild type and derivatives and the increase in mantADP fluorescence was determined. The fluorescence intensity of mantADP in absence of ClpB proteins was set at 1. Determined dissociation constants (Kd) are given. (B) Increasing nucleotide concentrations (ADP, ATPγS) were added to a preformed ClpB-mantADP complex (1,25 µM MANTADP, 1,25 µM ClpB WT or derivatives). Determined dissociation constants (Kd) are given.

ClpB [2] = target: T1, ClpB; test: NADH-coupled ATPase assay with purified ClpB, without and with casein; format: biochemical
ClpB [3] = target: T1, ClpB; test: equilibrium fluorescence titration of mantADP with ClpB; format: binding
ClpB [4] = target: ClpB (Escherichia coli, UniProt P63284, A328V); test: as above; format: binding
ClpB [5] = target: ClpB (Escherichia coli, UniProt P63284, K476C); test: as above; format: binding
Chain of ClpB (Escherichia coli, UniProt P63284, K476C) (P63284 whole entry K476C, looked up): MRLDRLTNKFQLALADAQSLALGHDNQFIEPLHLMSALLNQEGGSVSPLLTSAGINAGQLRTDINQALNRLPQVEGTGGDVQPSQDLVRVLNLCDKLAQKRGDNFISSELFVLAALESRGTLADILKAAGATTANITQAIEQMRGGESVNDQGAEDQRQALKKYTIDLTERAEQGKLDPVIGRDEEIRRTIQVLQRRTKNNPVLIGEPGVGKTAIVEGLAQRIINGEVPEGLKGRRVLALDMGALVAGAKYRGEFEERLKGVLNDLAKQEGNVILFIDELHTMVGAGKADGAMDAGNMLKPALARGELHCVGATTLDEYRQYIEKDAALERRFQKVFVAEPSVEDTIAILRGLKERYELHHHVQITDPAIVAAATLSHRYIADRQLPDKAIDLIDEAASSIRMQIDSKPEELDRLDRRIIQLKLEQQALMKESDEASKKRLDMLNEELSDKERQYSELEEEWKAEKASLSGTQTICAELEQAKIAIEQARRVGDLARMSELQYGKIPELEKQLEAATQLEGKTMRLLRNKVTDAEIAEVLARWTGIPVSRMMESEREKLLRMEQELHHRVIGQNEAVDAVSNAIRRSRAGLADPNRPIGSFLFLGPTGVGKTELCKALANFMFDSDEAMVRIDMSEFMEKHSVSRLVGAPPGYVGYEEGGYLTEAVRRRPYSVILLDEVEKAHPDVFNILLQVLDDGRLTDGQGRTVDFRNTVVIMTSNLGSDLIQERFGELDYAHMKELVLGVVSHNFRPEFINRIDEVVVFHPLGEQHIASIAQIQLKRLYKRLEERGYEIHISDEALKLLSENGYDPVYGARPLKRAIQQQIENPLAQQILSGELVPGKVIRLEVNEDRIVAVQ

T1 sequence (P63284 whole entry): as the sequence (P63284 whole entry K476C, looked up) above, with C476K counted along it
Chain of ClpB (Escherichia coli, UniProt P63284, A328V) (P63284 whole entry A328V): as the sequence (P63284 whole entry K476C, looked up) above, with A328V, C476K counted along it

Nc1ncnc2c1ncn2[C@@H]1O[C@H](COP(=O)(O)OP(=O)(O)O)[C@@H](O)[C@H]1O [ADP]
Kd (ClpB [1]): 7.6 µM

Nc1ncnc2c1ncn2[C@@H]1O[C@H](COP(=O)(O)OP(=O)(O)OP(=O)(O)O)[C@@H](O)[C@H]1O [ATP]
NADH-coupled ATPase assay with purified ClpB, without and with casein (ClpB [2]): ATPase activities of ClpB wild type (WT) and indicated ClpB mutants were determined in absence (−) and presence (+)

Nc1ncnc2c1ncn2[C@@H]1O[C@H](CO[P@](=O)(O)O[P@](=O)(O)O[P@@](=O)(O)S)[C@@H](O)[C@H]1O [ATPγS]
Kd (ClpB [1]): 8.1 µM

mantADP
Kd (ClpB [3]): 0.23 µM
Kd (ClpB [4]): 0.51 µM
Kd (ClpB [5]): 0.25 µM
